This passage reports IC50 results from patent US10183949B2, “Pyrimidinone derivative having autotaxin-inhibitory activity” (The University of Tokyo, priority 2014, dated 2019).

For orientation: IC50 means the concentration that inhibits the measured activity by half.

This assay has as its target T1, Human autotaxin enzyme (Homo sapiens, UniProt Q13822).
T1 construct: purchased R&D System
The experiment in a line: Evaluation of autotaxin inhibitor, 18:0 Lyso PC / choline assay (Test Example 2). Format: biochemical. Conditions: human autotaxin enzyme, 18:0 Lyso PC substrate, choline assay, room temperature 2 hours; read-out: Inhibitor activity (IC50). The method in brief:
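Inhibition derived from concentration-dependent curves, scaled between no-compound (0%) and no-enzyme (100%) wells. Choline generated from 18:0 Lyso PC (200 μM stock) by human enzyme over 2 h at room temperature (Tris-HCl pH 7.5, NaCl, MgCl2, Triton X-100) read as resorufin fluorescence, 531/598 nm, after choline oxidase-peroxidase coupling.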
For the compound `CC(C)(C)C(=O)Nc1cc(Cl)ccc1-c1cc(=O)n(Cc2cccc(C(=O)N3CCC(O)CC3)c2)cn1` [Compound I-0489], the IC50 fell in the range of 0.01 to 0.1 µM. `CCS(=O)(=O)N1CCN(C(=O)Cn2cnc(-c3ccc(Cl)cc3NC(=O)C(C)(C)C)cc2=O)CC1` [Compound I-0490]: the IC50 lay in the range of 0.1 to 1 µM. With `CC(C)(C)C(=O)Nc1cc(Cl)ccc1-c1cc(=O)n(Cc2cccc(C(=O)Nc3cnccc3O)c2)cn1` [Compound I-0491], the IC50 was in the range of 0.1 to 1 µM. Turning to `CC(C)(C)C(=O)Nc1cc(Cl)ccc1-c1cc(=O)n(Cc2cccc(C(=O)Nc3cccnc3O)c2)cn1` [Compound I-0492], the IC50 fell in the range of 0.01 to 0.1 µM.

For the compound `CC(C)(C)C(=O)Nc1cc(Cl)ccc1-c1cc(=O)n(Cc2cccc(C(=O)Nc3ccnc(O)c3)c2)cn1` [Compound I-0493], the IC50 was at least 1 µM. For the compound `COC(=O)Nc1cc(Cl)ccc1-c1cc(=O)n(CC(=O)N2CCC(CC(=O)OC(C)(C)C)CC2)c(C)n1` [Compound I-0494], the IC50 was under 0.01 µM. `CC(C)(C)C(=O)Nc1cc(Cl)ccc1-c1cc(=O)n(Cc2cccc(C(=O)N3CCC4(COC4)C3)c2)cn1` [Compound I-0495]: the half-maximal inhibitory concentration (IC50) lay in the range of 0.01 to 0.1 µM. For the compound `Cc1nc(-c2ccc(Cl)cc2NC(=O)C2CC2)cc(=O)n1CC(=O)N1CCC(CC(=O)OC(C)(C)C)CC1` [Compound I-0496], the IC50 is 0.01 to 0.1 µM.

On to `CC(C)(C)C(=O)Nc1cc(Cl)ccc1-c1cc(=O)n(Cc2cccc(C(=O)N3CCC(C(N)=O)CC3)c2)cn1` [Compound I-0497], for which the IC50 was in the range of 0.01 to 0.1 µM.

Consider `CC(C)(C)C(=O)Nc1cc(Cl)ccc1-c1cc(=O)n(Cc2cccc(C(=O)NCC3CCC(=O)NC3)c2)cn1` (stereo not shown) [Compound I-0498], for which the IC50 lay within 0.1 to 1 µM.

In the case of `CC(=O)Nc1cc(Cl)ccc1-c1cc(=O)n(CC(=O)N2CCN(CCC(=O)c3ccc4[nH]c(=O)oc4c3)CC2)cn1` [Compound I-0499], the IC50 was 0.1 to 1 µM. Turning to `CCNC(=O)N1CCC(NC(=O)c2cccc(Cn3cnc(-c4ccc(Cl)cc4NC(=O)C(C)(C)C)cc3=O)c2)CC1` [Compound I-0500], the IC50 was 0.01 to 0.1 µM. Regarding `CCS(=O)(=O)N1CCN(C(=O)c2cccc(Cn3cnc(-c4ccc(Cl)cc4NC(=O)C(C)(C)C)cc3=O)c2)CC1` [Compound I-0501], the IC50 is 0.01 to 0.1 µM.
